PubChem BioAssay AID2060603 (Molecular Pharmacology Branch, DTP, NCI, 2025)

Test system: 422866-222-R5-J1-PDC spheroid viability
Experiment: Anticancer human tumor 422866-222-R5-J1-PDC patient-derived pancreatic adenocarcinoma cell line growth inhibition [CLK]
Conditions: spheroids with HUVEC and MSC; for IC50: curve of first compound; for viability, T/C: stronger effect = lower value
Procedure, shortened: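 Patient-derived tumor cells grown as complex spheroids with HUVEC endothelial cells and mesenchymal stem cells, treated with drug combinations. Concentrations descend in half-log steps from near clinical Cmax, or from 10 microM if Cmax unknown.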

[1] = second compound 0.0316 µM, first compound 0.0316 µM
[2] = second compound 0.0316 µM, first compound 0.1 µM
[3] = second compound 0.0316 µM, first compound 0.316 µM
[4] = second compound 0.0316 µM, first compound 1 µM
[5] = second compound 0.0316 µM, first compound 3.16 µM
[6] = second compound 0.0316 µM, first compound 10 µM
[7] = second compound 0.1 µM, first compound 0.0316 µM
[8] = second compound 0.1 µM, first compound 0.1 µM
[9] = second compound 0.1 µM, first compound 0.316 µM
[10] = second compound 0.1 µM, first compound 1 µM
[11] = second compound 0.1 µM, first compound 3.16 µM
[12] = second compound 0.1 µM, first compound 10 µM
[13] = second compound 0.316 µM, first compound 0.0316 µM
[14] = second compound 0.316 µM, first compound 0.1 µM
[15] = second compound 0.316 µM, first compound 0.316 µM
[16] = second compound 0.316 µM, first compound 1 µM
[17] = second compound 0.316 µM, first compound 3.16 µM
[18] = second compound 0.316 µM, first compound 10 µM
[19] = second compound 1 µM, first compound 0.0316 µM
[20] = second compound 1 µM, first compound 0.1 µM
[21] = second compound 1 µM, first compound 0.316 µM
[22] = second compound 1 µM, first compound 1 µM
[23] = second compound 1 µM, first compound 3.16 µM
[24] = second compound 1 µM, first compound 10 µM
[25] = second compound 3.16 µM, first compound 0.0316 µM
[26] = second compound 3.16 µM, first compound 0.1 µM
[27] = second compound 3.16 µM, first compound 0.316 µM
[28] = second compound 3.16 µM, first compound 1 µM
[29] = second compound 3.16 µM, first compound 3.16 µM
[30] = second compound 3.16 µM, first compound 10 µM
[31] = second compound 10 µM, first compound 0.0316 µM
[32] = second compound 10 µM, first compound 0.1 µM
[33] = second compound 10 µM, first compound 0.316 µM
[34] = second compound 10 µM, first compound 1 µM
[35] = second compound 10 µM, first compound 3.16 µM
[36] = second compound 10 µM, first compound 10 µM
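Note: spheroids exposed to agents for seven days before readout.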

## C=CC(=O)N1CCN(c2nc(=O)n(-c3c(C)ccnc3C(C)C)c3nc(-c4c(O)cccc4F)c(F)cc23)C(C)C1 (stereo unspecified) + CNC(=O)c1ccc(Nc2nc(OC3CCCC3)c3c(-c4ccc5nc(C)oc5c4)c[nH]c3n2)c(OC)c1
Second compound 0.0316 µM
  IC50: < 0.0316 µM
Second compound 0.1 µM
  IC50: < 0.0316 µM
Second compound 0.316 µM
  IC50: < 0.0316 µM
Second compound 1 µM
  IC50: < 0.0316 µM
Second compound 3.16 µM
  IC50: < 0.0316 µM
Second compound 10 µM
  IC50: < 0.0316 µM
[1]
  viability, T/C: 36.8%
[2]
  viability, T/C: 35.4%
[3]
  viability, T/C: 29.5%
[4]
  viability, T/C: 27.4%
[5]
  viability, T/C: 23.5%
[6]
  viability, T/C: 24.6%
[7]
  viability, T/C: 34.6%
[8]
  viability, T/C: 33.2%
[9]
  viability, T/C: 27.6%
[10]
  viability, T/C: 28.7%
[11]
  viability, T/C: 26%
[12]
  viability, T/C: 26.1%
[13]
  viability, T/C: 34.9%
[14]
  viability, T/C: 30.8%
[15]
  viability, T/C: 27.1%
[16]
  viability, T/C: 25.6%
[17]
  viability, T/C: 24.8%
[18]
  viability, T/C: 26.2%
[19]
  viability, T/C: 35.7%
[20]
  viability, T/C: 25.7%
[21]
  viability, T/C: 28.8%
[22]
  viability, T/C: 25.3%
[23]
  viability, T/C: 31.9%
[24]
  viability, T/C: 27.7%
[25]
  viability, T/C: 32.3%
[26]
  viability, T/C: 29.9%
[27]
  viability, T/C: 28.3%
[28]
  viability, T/C: 24.4%
[29]
  viability, T/C: 27.6%
[30]
  viability, T/C: 30.9%
[31]
  viability, T/C: 32%
[32]
  viability, T/C: 28.9%
[33]
  viability, T/C: 27.8%
[34]
  viability, T/C: 27.4%
[35]
  viability, T/C: 29.9%
[36]
  viability, T/C: 26.4%

## CCCS(=O)(=O)Nc1ccc(F)c(C(=O)c2c[nH]c3ncc(-c4ccc(Cl)cc4)cc23)c1F + CNC(=O)c1ccc(Nc2nc(OC3CCCC3)c3c(-c4ccc5nc(C)oc5c4)c[nH]c3n2)c(OC)c1
Second compound 0.0316 µM
  IC50: > 10 µM
Second compound 0.1 µM
  IC50: > 10 µM
Second compound 0.316 µM
  IC50: > 10 µM
Second compound 1 µM
  IC50: > 10 µM
Second compound 3.16 µM
  IC50: > 10 µM
Second compound 10 µM
  IC50: > 10 µM
[1]
  viability, T/C: 93.6%
[2]
  viability, T/C: 111%
[3]
  viability, T/C: 141%
[4]
  viability, T/C: 155%
[5]
  viability, T/C: 190%
[6]
  viability, T/C: 134%
[7]
  viability, T/C: 99.8%
[8]
  viability, T/C: 102%
[9]
  viability, T/C: 114%
[10]
  viability, T/C: 152%
[11]
  viability, T/C: 224%
[12]
  viability, T/C: 122%
[13]
  viability, T/C: 81.5%
[14]
  viability, T/C: 77.2%
[15]
  viability, T/C: 79.3%
[16]
  viability, T/C: 105%
[17]
  viability, T/C: 101%
[18]
  viability, T/C: 104%
[19]
  viability, T/C: 69%
[20]
  viability, T/C: 75.9%
[21]
  viability, T/C: 81.1%
[22]
  viability, T/C: 91%
[23]
  viability, T/C: 114%
[24]
  viability, T/C: 92.3%
[25]
  viability, T/C: 58.4%
[26]
  viability, T/C: 70.1%
[27]
  viability, T/C: 67.1%
[28]
  viability, T/C: 84.6%
[29]
  viability, T/C: 128%
[30]
  viability, T/C: 84%
[31]
  viability, T/C: 57.8%
[32]
  viability, T/C: 69.2%
[33]
  viability, T/C: 74.8%
[34]
  viability, T/C: 75.9%
[35]
  viability, T/C: 117%
[36]
  viability, T/C: 80.7%

## COC1C=CCC(C)C(C)S(=O)(=O)NC(=O)c2ccc3c(c2)N(CC2CCC21)CC1(CCCc2cc(Cl)ccc21)CO3 (stereo unspecified) + CNC(=O)c1ccc(Nc2nc(OC3CCCC3)c3c(-c4ccc5nc(C)oc5c4)c[nH]c3n2)c(OC)c1
Second compound 0.0316 µM
  IC50: > 10 µM
Second compound 0.1 µM
  IC50: > 10 µM
Second compound 0.316 µM
  IC50: > 10 µM
Second compound 1 µM
  IC50: > 10 µM
Second compound 3.16 µM
  IC50: > 10 µM
Second compound 10 µM
  IC50: > 10 µM
[1]
  viability, T/C: 118%
[2]
  viability, T/C: 112%
[3]
  viability, T/C: 114%
[4]
  viability, T/C: 96.4%
[5]
  viability, T/C: 120%
[6]
  viability, T/C: 84.6%
[7]
  viability, T/C: 101%
[8]
  viability, T/C: 92.9%
[9]
  viability, T/C: 94.1%
[10]
  viability, T/C: 89.2%
[11]
  viability, T/C: 97.8%
[12]
  viability, T/C: 79.6%
[13]
  viability, T/C: 85.2%
[14]
  viability, T/C: 86.5%
[15]
  viability, T/C: 72.9%
[16]
  viability, T/C: 82.3%
[17]
  viability, T/C: 91.6%
[18]
  viability, T/C: 86.6%
[19]
  viability, T/C: 69.3%
[20]
  viability, T/C: 68.7%
[21]
  viability, T/C: 60%
[22]
  viability, T/C: 63.9%
[23]
  viability, T/C: 87%
[24]
  viability, T/C: 82.2%
[25]
  viability, T/C: 69.9%
[26]
  viability, T/C: 61.5%
[27]
  viability, T/C: 62.4%
[28]
  viability, T/C: 57.9%
[29]
  viability, T/C: 88%
[30]
  viability, T/C: 82%
[31]
  viability, T/C: 58%
[32]
  viability, T/C: 59.5%
[33]
  viability, T/C: 69.5%
[34]
  viability, T/C: 72.8%
[35]
  viability, T/C: 94.8%
[36]
  viability, T/C: 91.5%
